Each compound was assayed against Tyrosine-protein kinase BTK (Homo sapiens, UniProt Q06187) (assay: BTK Kinase Activity Inhibition Test in Vitro).
Sequence of Tyrosine-protein kinase BTK (Q06187 whole entry): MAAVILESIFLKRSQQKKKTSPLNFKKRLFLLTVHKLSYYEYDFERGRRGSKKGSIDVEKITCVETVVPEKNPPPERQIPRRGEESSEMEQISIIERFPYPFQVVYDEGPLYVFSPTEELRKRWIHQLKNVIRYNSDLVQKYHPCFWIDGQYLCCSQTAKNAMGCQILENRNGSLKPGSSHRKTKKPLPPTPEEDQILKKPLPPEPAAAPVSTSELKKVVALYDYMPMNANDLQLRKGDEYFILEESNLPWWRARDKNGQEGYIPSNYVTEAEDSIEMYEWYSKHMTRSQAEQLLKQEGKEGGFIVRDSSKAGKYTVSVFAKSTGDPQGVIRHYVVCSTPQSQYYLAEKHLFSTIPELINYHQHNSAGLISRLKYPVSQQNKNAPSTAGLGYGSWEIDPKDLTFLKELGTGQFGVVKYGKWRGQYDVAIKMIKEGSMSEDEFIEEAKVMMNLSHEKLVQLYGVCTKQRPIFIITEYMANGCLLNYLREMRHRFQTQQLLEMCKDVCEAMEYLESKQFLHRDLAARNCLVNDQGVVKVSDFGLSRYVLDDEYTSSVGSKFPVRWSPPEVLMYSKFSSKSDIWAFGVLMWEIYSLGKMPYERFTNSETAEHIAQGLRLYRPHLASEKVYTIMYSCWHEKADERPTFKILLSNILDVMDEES

IC50, < 5 nM:
Nc1nccn2c(C3CCC(CO)OC3)nc(-c3ccc(Oc4cccc(OC(F)(F)F)c4F)cc3)c12 (stereo unspecified) [US20230364079, Example 6]
Nc1nccn2c(C3CCC(CO)OC3)nc(-c3ccc(Oc4cccc(Cl)c4F)cc3)c12 (stereo unspecified) [US20230364079, Example 9]
COc1cccc(Oc2ccc(-c3nc(C4CCC(CO)OC4)n4c(Cl)cnc(N)c34)c(F)c2)c1F (stereo unspecified) [US20230364079, Example 11]
COc1cccc(Oc2ccc(-c3nc(C4CCC(CO)OC4)n4c(Cl)cnc(N)c34)cc2)c1F (stereo unspecified) [US20230364079, Example 12]
Nc1nccn2c(C3CCC(CO)OC3)nc(-c3ccc(Oc4cccc(OC(F)(F)F)c4F)cc3F)c12 (stereo unspecified) [US20230364079, Example 13]
Nc1ncc(Cl)n2c(C3CCC(CO)OC3)nc(-c3ccc(Oc4cccc(OC(F)(F)F)c4F)cc3)c12 (stereo unspecified) [US20230364079, Example 14]
